Measurements published in PMC6271077, “Synthesis, Anticancer and Antibacterial Activity of Salinomycin N-Benzyl Amides” (Molecules, 2014).
In brackets after ≈: the same amount, converted by molar mass. Like-named read-outs stand apart in the source and are kept apart here.

Legend:
LoVo = experiment: Antiproliferative SRB assay, LoVo; format: cell-based, human; conditions: for IC50: Homo sapiens, LoVo, 72 h, read-out: IC50 LoVo; for SI LoVo: SI = IC50 BALB/3T3 / IC50 LoVo
S. aureus ATCC 25923 = experiment: Disc-diffusion (GIZ); format: cell-based; conditions: 18 h, 35 °C, un: unmeasurable
Description: (§1) Microorganisms used in this study were as follows: Gram-positive cocci: S. aureus NCTC 4163, S. aureus ATCC 25923, S. aureus ATCC 6538, S. aureus ATCC 29213, S. epidermidis ATCC 12228, S. epidermidis ATCC 35984, Gram-negative rods: E. coli ATCC 10538, E. coli ATCC 25922, E. coli NCTC 8196, P. vulgaris NCTC 4635, P. aeruginosa ATCC 15442, P. aeruginosa NCTC 6749, P. aeruginosa ATCC 27863, B. bronchiseptica ATCC 4617 and yeasts: C. albicans ATCC 10231, C. albicans ATCC 90028, C. parapsilosis ATCC 22019. The other microorganisms used were obtained from the collection of the Department of Pharmaceutical Microbiology, Medical University of Warsaw, Poland.
(§2) Antibacterial activity was examined by the disc-diffusion method under standard conditions using Mueller-Hinton II agar medium (Becton Dickinson, Heidelberg, Germany) according to CLSI (previously NCCLS) guidelines. Antifungal activities were assessed using Muellere Hinton agar + 2% glucose and 0.5 mg/mL Methylene Blue Dye Medium.
(§3) Sterile filter paper discs (9 mm diameter, Whatman No. 3 chromatography paper) were dripped with tested compound solutions (in EtOH) to load […] of a given compound per disc. Dry discs were placed on the surface of appropriate agar medium. The results (diameter of the growth inhibition zone, GIZ) were read after 18 h of incubation at 35 °C.

S. aureus ATCC 29213 = experiment: Disc-diffusion (GIZ); format: cell-based; conditions: 18 h, 35 °C, un: unmeasurable
Description: as §1, §2, §3

S. aureus ATCC 4163 = experiment: Disc-diffusion (GIZ); format: cell-based; conditions: 18 h, 35 °C, un: unmeasurable
Description: as §1, §2, §3

S. aureus ATCC 6538 [1] = experiment: Disc-diffusion (GIZ); format: cell-based; conditions: 18 h, 35 °C, un: unmeasurable
Description: as §1, §2, §3

[2] = tested on: S. epidermidis ATCC 12228; experiment: Disc-diffusion (GIZ); format: cell-based; conditions: 18 h, 35 °C, un: unmeasurable
Description: as §1, §2, §3

[3] = tested on: S. epidermidis ATCC 35984; experiment: Disc-diffusion (GIZ); format: cell-based; conditions: 18 h, 35 °C, un: unmeasurable
Description: as §1, §2, §3

S. aureus ATCC 6538 [4] = experiment: MIC microdilution; format: cell-based; conditions: Staphylococcus aureus
[5] = tested on: S. epidermidis ATCC 35984; experiment: MIC microdilution; format: cell-based; conditions: Staphylococcus epidermidis
MRSA 514/11 = experiment: MIC microdilution, hospital MRSA; format: cell-based; conditions: Staphylococcus aureus
MRSA 573/12 = experiment: MIC microdilution, hospital MRSA; format: cell-based; conditions: Staphylococcus aureus
MRSE 460/11 = experiment: MIC microdilution, hospital MRSE; format: cell-based; conditions: Staphylococcus epidermidis
MRSE 466/11 = experiment: MIC microdilution, hospital MRSE; format: cell-based; conditions: Staphylococcus epidermidis
MRSE 468/11 = experiment: MIC microdilution, hospital MRSE; format: cell-based; conditions: Staphylococcus epidermidis
MRSE 489/11 = experiment: MIC microdilution, hospital MRSE; format: cell-based; conditions: Staphylococcus epidermidis
[6] = ATCC6538, S. aureus ATCC 6538, 18 h, 35 °C, read-out: MIC
[7] = ATCC35984, S. epidermidis ATCC 35984, 18 h, 35 °C, read-out: MIC
[8] = hospital MRSA strain 514/11, read-out: MIC
[9] = hospital MRSA strain 573/12, read-out: MIC
[10] = hospital MRSE strain 460/11, read-out: MIC
[11] = hospital MRSE strain 466/11, read-out: MIC
[12] = hospital MRSE strain 468/11, read-out: MIC
[13] = hospital MRSE strain 489/11, read-out: MIC

Q: For CC[C@@H](C(=O)[C@@H](C)[C@@H](O)[C@H](C)[C@@H]1O[C@@H]([C@@H](CC)C(=O)O)CC[C@@H]1C)[C@H]1O[C@]2(C=C[C@@H](O)[C@]3(CC[C@@](C)([C@H]4CC[C@](O)(CC)[C@H](C)O4)O3)O2)[C@H](C)C[C@@H]1C [SAL, Salinomycin], which IC50 (LoVo) is on record?
A: 0.47 ± 0.08 µM

Q: And the “SI LoVo” value (LoVo)?
A: 27.70

Q: What about the GIZ (S. aureus ATCC 25923) of the same compound?
A: 29 mm

Q: What about the GIZ (S. aureus ATCC 29213) of the same compound?
A: 28 mm

Q: What about the GIZ (S. aureus ATCC 4163) of the same compound?
A: 30 mm

Q: And the GIZ (S. aureus ATCC 6538 [1])?
A: 34 mm

Q: What about the GIZ [2] of the same compound?
A: 34 mm

Q: And the GIZ [3]?
A: 33 mm

Q: What about the MIC (S. aureus ATCC 6538 [4]; ATCC6538, 18 h) of the same compound?
A: 2 µg/mL (≈ 2.66 µM)

Q: What about the MIC ([5]; ATCC35984, 18 h) of the same compound?
A: 2 µg/mL (≈ 2.66 µM)

Q: What about the MIC (MRSA 514/11; MRSA) of the same compound?
A: 8 µg/mL (≈ 10.7 µM)

Q: What about the MIC (MRSA 573/12; MRSA) of the same compound?
A: 16 µg/mL (≈ 21.3 µM)

Q: And the MIC (MRSE 460/11; MRSE)?
A: 16 µg/mL (≈ 21.3 µM)

Q: What about the MIC (MRSE 466/11; MRSE) of the same compound?
A: 8 µg/mL (≈ 10.7 µM)

Q: What about the MIC (MRSE 468/11; MRSE) of the same compound?
A: 16 µg/mL (≈ 21.3 µM)

Q: What about the MIC (MRSE 489/11; MRSE) of the same compound?
A: 16 µg/mL (≈ 21.3 µM)

Q: With CC[C@H](C(=O)NCc1ccc([N+](=O)[O-])cc1)C1CC[C@H](C)C([C@@H](C)[C@H](O)[C@H](C)C(=O)[C@H](CC)C2O[C@]3(C=C[C@@H](O)C4(CC[C@@](C)(C5CC[C@](O)(CC)[C@H](C)O5)O4)O3)[C@H](C)C[C@@H]2C)O1 (stereo partly drawn) [NO2-p] as the compound, how does the IC50 (LoVo; SRB, mean ± SD) read?
A: 13.3 ± 1.94 µM

Q: What about the “SI LoVo” value (LoVo) of the same compound?
A: 0.52

Q: And the GIZ (S. aureus ATCC 25923)?
A: un

Q: And the GIZ (S. aureus ATCC 29213)?
A: un

Q: And the GIZ (S. aureus ATCC 4163)?
A: un

Q: What about the GIZ (S. aureus ATCC 6538 [1]) of the same compound?
A: un

Q: What about the GIZ [2] of the same compound?
A: un

Q: What about the GIZ [3] of the same compound?
A: un

Q: And the MIC (S. aureus ATCC 6538 [4]; [6])?
A: 128 µg/mL (≈ 145 µM)

Q: What about the MIC [5, 7] of the same compound?
A: 128 µg/mL (≈ 145 µM)

Q: And the MIC (MRSA 514/11; [8])?
A: 128 µg/mL (≈ 145 µM)

Q: What about the MIC (MRSA 573/12; [9]) of the same compound?
A: 256 µg/mL (≈ 289 µM)

Q: What about the MIC (MRSE 460/11; [10]) of the same compound?
A: 128 µg/mL (≈ 145 µM)

Q: What about the MIC (MRSE 466/11; [11]) of the same compound?
A: 256 µg/mL (≈ 289 µM)

Q: What about the MIC (MRSE 468/11; [12]) of the same compound?
A: 128 µg/mL (≈ 145 µM)

Q: What about the MIC (MRSE 489/11; [13]) of the same compound?
A: 256 µg/mL (≈ 289 µM)

Q: For CC[C@H](C(=O)NCc1ccc(F)cc1)C1CC[C@H](C)C([C@@H](C)[C@H](O)[C@H](C)C(=O)[C@H](CC)C2O[C@]3(C=C[C@@H](O)C4(CC[C@@](C)(C5CC[C@](O)(CC)[C@H](C)O5)O4)O3)[C@H](C)C[C@@H]2C)O1 (stereo partly drawn) [F-p], which IC50 (LoVo; SRB, mean ± SD) is on record?
A: 6.18 ± 0.91 µM

Q: What about the “SI LoVo” value (LoVo) of the same compound?
A: 1.40

Q: What about the GIZ (S. aureus ATCC 25923) of the same compound?
A: 19 mm

Q: What about the GIZ (S. aureus ATCC 29213) of the same compound?
A: 20 mm

Q: What about the GIZ (S. aureus ATCC 4163) of the same compound?
A: 18 mm

Q: What about the GIZ (S. aureus ATCC 6538 [1]) of the same compound?
A: 19 mm

Q: What about the GIZ [2] of the same compound?
A: 20 mm

Q: And the GIZ [3]?
A: 18 mm

Q: And the MIC (S. aureus ATCC 6538 [4]; [6])?
A: 16 µg/mL (≈ 18.6 µM)

Q: What about the MIC [5, 7] of the same compound?
A: 32 µg/mL (≈ 37.3 µM)

Q: And the MIC (MRSA 514/11; [8])?
A: 32 µg/mL (≈ 37.3 µM)

Q: And the MIC (MRSA 573/12; [9])?
A: 64 µg/mL (≈ 74.6 µM)

Q: What about the MIC (MRSE 460/11; [10]) of the same compound?
A: 32 µg/mL (≈ 37.3 µM)

Q: And the MIC (MRSE 466/11; [11])?
A: 16 µg/mL (≈ 18.6 µM)

Q: And the MIC (MRSE 468/11; [12])?
A: 64 µg/mL (≈ 74.6 µM)

Q: And the MIC (MRSE 489/11; [13])?
A: 32 µg/mL (≈ 37.3 µM)
